In US20230295058A1, “SYSTEMS AND METHODS FOR GENERATION OF HYPERPOLARIZED COMPOUNDS USING PARAHYDROGEN” (NVISION IMAGING TECHNOLOGIES GMBH, priority 2020, published 2023):
Like-named read-outs stand apart in the source and are kept apart here.

What was measured:
[1] = cited from earlier work
variety of cell lines = test: cytotoxicity of clean fumarate samples following precipitation; type: cell-based; details: precipitated, washed and redissolved samples, even at high concentrations (FIG. 10)
Experimental: FIG. 10 depicts the results of cytotoxicity experiments performed using samples of precipitated, washed and redissolved sodium fumarate generated in accordance with disclosed embodiments
The clean fumarate samples following precipitation were tested for cytotoxicity using a variety of cell lines. FIG. 10 depicts the result of the cell line experiments.

Row | SMILES | maximal mole fraction in n-heptane ([1]; 14.8° C.) | maximal mole fraction in n-heptane ([1]; −29.2° C.) | cytotoxicity (variety of cell lines)
1 | CC(=O)O [acetic acid] | 0.935 | 0.02 | –
2 | O=C([O-])/C=C/[13C](=O)[O-].[Na+].[Na+] [sodium fumarate, sodium fumarate-1-^13C] | – | – | No toxicity was visible
